Measured values published in PubChem BioAssay AID258 (DTP/NCI, 2004).
“And” between values parts separate entries of the source, which are not always exact repeats. Equal entries are not always repeated. Toxic doses and inconclusive results are not listed.

System: CD2F1 mice, L1210 leukemia sc, survival T/C
Assay: NCI In Vivo Anticancer Drug Screen. Data for tumor model L1210 Leukemia (subcutaneous) in CD2F1 (CDF1) mice
Settings: endpoint: median survival time, higher = longer survival
How it was run: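 Antitumor activity is scored in tumor-bearing mice by comparing survival or tumor size of treated animals against vehicle-treated controls, reported as T/C.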

For CNCCN=c1ccc2c3c1c(O)c1c(O)ccc(=O)c1c3[nH]n2CCNCCO, the T/C (dose: 1.08 mg/kg/injection, schedule: Q01DX009 (ip), vehicle: water) was 117 % of control, the T/C (dose: 3.0 mg/kg/injection, schedule: Q01DX009 (ip), vehicle: water) was 206 % of control and the T/C (dose: 5.0 mg/kg/injection, schedule: Q01DX009 (ip), vehicle: water) was 124 % of control. The T/C (dose: 8.3 mg/kg/injection, schedule: Q01DX009 (ip), vehicle: water) was 89 % of control.
With Cc1cc(NCCCCCCCNc2cc(C)nc3cc(N)ccc23)c2ccc(N)cc2n1 the T/C (dose: 1.56 mg/kg/injection, schedule: Q01DX009 (ip), vehicle: water) was 100 % of control and 104 % of control and 98 % of control, the T/C (dose: 3.12 mg/kg/injection, schedule: Q01DX009 (ip), vehicle: water) was 109 % of control and 110 % of control and 121 % of control and the T/C (dose: 6.25 mg/kg/injection, schedule: Q01DX009 (ip), vehicle: water) was 120 % of control. For the same compound, the T/C (dose: 12.5 mg/kg/injection, schedule: Q01DX009 (ip), vehicle: water) was 156 % of control and 175 % of control and the T/C (dose: 25.0 mg/kg/injection, schedule: Q01DX009 (ip), vehicle: water) was 120 % of control.
For CN1CCN(CN2C(=O)C3C4C=CC(C3C2=O)C2C3C(=O)N(CN5CCN(C)CC5)C(=O)C3C42)CC1 (stereo unspecified), the T/C (dose: 21.6 mg/kg/injection, schedule: Q01DX009 (ip), vehicle: water) was 106 % of control, the T/C (dose: 24.8 mg/kg/injection, schedule: Q01DX009 (ip), vehicle: water) was 118 % of control and the T/C (dose: 36.0 mg/kg/injection, schedule: Q01DX009 (ip), vehicle: water) was 113 % of control. The T/C (dose: 41.3 mg/kg/injection, schedule: Q01DX009 (ip), vehicle: water) was 150 % of control, the T/C (dose: 60.0 mg/kg/injection, schedule: Q01DX009 (ip), vehicle: water) was 170 % of control and the T/C (dose: 68.8 mg/kg/injection, schedule: Q01DX009 (ip), vehicle: water) was 174 % of control. For the same compound, the T/C (dose: 100.0 mg/kg/injection, schedule: Q01DX009 (ip), vehicle: water) was 243 % of control and the T/C (dose: 114.7 mg/kg/injection, schedule: Q01DX009 (ip), vehicle: water) was 235 % of control.
In the case of O=C[C@@H](CO)O[C@H](C=O)c1c[nH]c(=O)[nH]c1=O, the T/C (dose: 54.0 mg/kg/injection, schedule: Q04DX003 (ip), vehicle: saline) is reported as 106 % of control and the T/C (dose: 90.0 mg/kg/injection, schedule: Q04DX003 (ip), vehicle: saline) is reported as 123 % of control.
For CC(C)(C)N1CC1CNC(=O)C(=O)NCC1CN1C(C)(C)C (stereo unspecified), the T/C (dose: 3.13 mg/kg/injection, schedule: Q01DX009 (ip), vehicle: saline with Tween-80) was 107 % of control and 108 % of control, the T/C (dose: 6.25 mg/kg/injection, schedule: Q01DX009 (ip), vehicle: saline with Tween-80) was 122 % of control and the T/C (dose: 12.5 mg/kg/injection, schedule: Q01DX009 (ip), vehicle: saline with Tween-80) was 157 % of control. For the same compound, the T/C (dose: 25.0 mg/kg/injection, schedule: Q01DX009 (ip), vehicle: saline with Tween-80) was 86 % of control.
For Cc1ccc(C(=O)Nc2ccc(S(=O)(=O)O)c3cc(S(=O)(=O)O)cc(S(=O)(=O)O)c23)cc1NC(=O)c1cccc(NC(=O)Nc2cccc(C(=O)Nc3cc(C(=O)Nc4ccc(S(=O)(=O)O)c5cc(S(=O)(=O)O)cc(S(=O)(=O)O)c45)ccc3C)c2)c1, the T/C (dose: 10.0 mg/kg/injection, schedule: Q07DX003 (iv), vehicle: water) was 97 % of control, the T/C (dose: 20.0 mg/kg/injection, schedule: Q07DX003 (iv), vehicle: water) was 96 % of control and the T/C (dose: 40.0 mg/kg/injection, schedule: Q07DX003 (iv), vehicle: water) was 100 % of control.
With CCN=c1cc2oc3cc(NCC)c(C)cc3c(-c3ccccc3C(=O)OCC)c-2cc1C the T/C (dose: 0.63 mg/kg/injection, schedule: Q01DX009 (ip), vehicle: water) was 102 % of control, the T/C (dose: 0.63 mg/kg/injection, schedule: Q01DX009 (sc), vehicle: water) was 100 % of control and the T/C (dose: 1.25 mg/kg/injection, schedule: Q01DX009 (ip), vehicle: water) was 96 % of control. For the same compound, the T/C (dose: 1.25 mg/kg/injection, schedule: Q01DX009 (sc), vehicle: water) was 104 % of control and 97 % of control, the T/C (dose: 2.5 mg/kg/injection, schedule: Q01DX009 (sc), vehicle: water) was 105 % of control and the T/C (dose: 5.0 mg/kg/injection, schedule: Q01DX009 (sc), vehicle: water) was 104 % of control.
In the case of CNNCc1ccc(C(=O)NC(N)=O)cc1, the T/C (dose: 50.0 mg/kg/injection, schedule: Q01DX Z (sc), vehicle: saline) is reported as 94 % of control, the T/C (dose: 100.0 mg/kg/injection, schedule: Q01DX Z (sc), vehicle: saline) is reported as 105 % of control and the T/C (dose: 200.0 mg/kg/injection, schedule: Q01DX Z (sc), vehicle: saline) is reported as 105 % of control. The T/C (dose: 400.0 mg/kg/injection, schedule: Q01DX Z (sc), vehicle: saline) was 94 % of control.
In the case of Nc1nncs1, the T/C (dose: 39.0 mg/kg/injection, schedule: Q02DX005 (sc), vehicle: water) is reported as 100 % of control and 103 % of control, the T/C (dose: 65.0 mg/kg/injection, schedule: Q02DX005 (sc), vehicle: water) is reported as 100 % of control and 102 % of control and the T/C (dose: 108.0 mg/kg/injection, schedule: Q02DX005 (sc), vehicle: water) is reported as 100 % of control and 106 % of control. For the same compound, the T/C (dose: 180.0 mg/kg/injection, schedule: Q02DX005 (sc), vehicle: water) was 122 % of control, the T/C (dose: 300.0 mg/kg/injection, schedule: Q02DX005 (sc), vehicle: water) was 166 % of control and 180 % of control and the T/C (dose: 300.0 mg/kg/injection, schedule: Q04DX003 (sc), vehicle: saline) was 100 % of control and 104 % of control. For the same compound, the T/C (dose: 500.0 mg/kg/injection, schedule: Q02DX005 (sc), vehicle: water) was 172 % of control and 180 % of control, the T/C (dose: 500.0 mg/kg/injection, schedule: Q04DX003 (sc), vehicle: saline) was 105 % of control and 112 % of control and the T/C (dose: 833.0 mg/kg/injection, schedule: Q04DX003 (sc), vehicle: saline) was 116 % of control and 124 % of control. For the same compound, the T/C (dose: 1388.0 mg/kg/injection, schedule: Q04DX003 (sc), vehicle: saline) was 154 % of control.
O=NN(CCCl)C(=O)NC12CC3CC(CC(C3)C1)C2 was tested, and the T/C (dose: 6.25 mg/kg/injection, schedule: Q01DX Z (sc), vehicle: carboxymethylcellulose (CMC)) was 100 % of control, the T/C (dose: 12.5 mg/kg/injection, schedule: Q01DX Z (sc), vehicle: carboxymethylcellulose (CMC)) was 100 % of control and the T/C (dose: 25.0 mg/kg/injection, schedule: Q01DX Z (sc), vehicle: carboxymethylcellulose (CMC)) was 110 % of control. The T/C (dose: 50.0 mg/kg/injection, schedule: Q01DX Z (sc), vehicle: carboxymethylcellulose (CMC)) was 325 % of control and the T/C (dose: 100.0 mg/kg/injection, schedule: Q01DX Z (sc), vehicle: carboxymethylcellulose (CMC)) was 240 % of control.
